# Experiments:
# Experiment in all cases: relative viability (nuclei count vs DMSO), 5 days (fraction); higher = more cells survive
# [1] = test system: NCI-H2087
# Summary of the method: (§1)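 Five library-drug doses in √10 steps were combined with a fixed anchor-drug dose, or a single drug was given alone, by pin tool to lung cancer cell lines in 1536-well plates the day after seeding. Nuclei were stained and counted after 5 days. Relative viability is the nuclei count in treated wells over that in vehicle wells, taken as the median of duplicate plates.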
# [2] = test system: NCI-H2170
# Summary of the method: as §1
# [3] = test system: NCI-H2228
# Summary of the method: as §1
# [4] = test system: NCI-H23
# Summary of the method: as §1
# [5] = test system: NCI-H441
# Summary of the method: as §1
# [6] = test system: NCI-H650
# Summary of the method: as §1
# [7] = test system: NCI-H727
# Summary of the method: as §1
# [8] = test system: NCI-H838
# Summary of the method: as §1
# [9] = test system: PC-3 [JPC-3]
# Summary of the method: as §1
# [10] = test system: SW 1573
# Summary of the method: as §1
# [11] = test system: SW 900
# Summary of the method: as §1
# [12] = test system: UMC-11
# Summary of the method: as §1
smiles,measurement,setting,value
Cc1cn(-c2cc(NC(=O)c3ccc(C)c(Nc4nccc(-c5cccnc5)n4)c3)cc(C(F)(F)F)c2)cn1 [Nilotinib] + CCNC(=O)c1noc(-c2cc(C(C)C)c(O)cc2O)c1-c1ccc(CN2CCOCC2)cc1 [Luminespib] (partner 0.01 µM),relative viability,[1]; first compound 0.003162 µM,0.219
same,relative viability,[1]; first compound 0.01 µM,0.202
same,relative viability,[1]; first compound 0.03162 µM,0.172
same,relative viability,[1]; first compound 0.1 µM,0.164
same,relative viability,[2]; first compound 0.001 µM,0.591
same,relative viability,[2]; first compound 0.003162 µM,1.11
same,relative viability,[2]; first compound 0.01 µM,1.5
same,relative viability,[2]; first compound 0.03162 µM,0.328
same,relative viability,[2]; first compound 0.1 µM,0.877
same,relative viability,[3]; first compound 0.003162 µM,0.161
same,relative viability,[3]; first compound 0.01 µM,0.183
same,relative viability,[3]; first compound 0.03162 µM,0.151
same,relative viability,[3]; first compound 0.1 µM,0.0953
same,relative viability,[4]; first compound 0.001 µM,0.204
same,relative viability,[4]; first compound 0.01 µM,0.205
same,relative viability,[4]; first compound 0.03162 µM,0.19
same,relative viability,[4]; first compound 0.1 µM,0.195
same,relative viability,[5]; first compound 0.001 µM,0.33
same,relative viability,[5]; first compound 0.003162 µM,0.375
same,relative viability,[5]; first compound 0.01 µM,0.322
same,relative viability,[5]; first compound 0.03162 µM,0.413
same,relative viability,[5]; first compound 0.1 µM,0.304
same,relative viability,[6]; first compound 0.001 µM,0.687
same,relative viability,[6]; first compound 0.003162 µM,0.564
same,relative viability,[6]; first compound 0.01 µM,0.792
same,relative viability,[6]; first compound 0.03162 µM,0.742
same,relative viability,[6]; first compound 0.1 µM,0.79
same,relative viability,[7]; first compound 0.001 µM,0.349
same,relative viability,[7]; first compound 0.003162 µM,0.516
same,relative viability,[7]; first compound 0.01 µM,0.227
same,relative viability,[7]; first compound 0.03162 µM,0.281
same,relative viability,[7]; first compound 0.1 µM,0.344
same,relative viability,[8]; first compound 0.001 µM,0.24
same,relative viability,[8]; first compound 0.003162 µM,0.276
same,relative viability,[8]; first compound 0.01 µM,0.308
same,relative viability,[8]; first compound 0.03162 µM,0.273
same,relative viability,[8]; first compound 0.1 µM,0.208
same,relative viability,[9]; first compound 0.001 µM,0.548
same,relative viability,[9]; first compound 0.003162 µM,0.627
same,relative viability,[9]; first compound 0.01 µM,0.869
same,relative viability,[9]; first compound 0.03162 µM,0.659
same,relative viability,[9]; first compound 0.1 µM,0.526
same,relative viability,[10]; first compound 0.001 µM,0.397
same,relative viability,[10]; first compound 0.003162 µM,0.711
same,relative viability,[10]; first compound 0.01 µM,0.277
same,relative viability,[10]; first compound 0.03162 µM,0.163
same,relative viability,[10]; first compound 0.1 µM,0.144
same,relative viability,[11]; first compound 0.001 µM,0.177
same,relative viability,[11]; first compound 0.003162 µM,0.176
same,relative viability,[11]; first compound 0.01 µM,0.164
same,relative viability,[11]; first compound 0.03162 µM,0.186
same,relative viability,[11]; first compound 0.1 µM,0.198
same,relative viability,[12]; first compound 0.001 µM,0.978
same,relative viability,[12]; first compound 0.003162 µM,1.22
same,relative viability,[12]; first compound 0.01 µM,1.26
same,relative viability,[12]; first compound 0.1 µM,1.39
